Measurements from PubChem BioAssay AID1963831 (Molecular Pharmacology Branch, DTP, NCI, 2024).

Test system: 889142-216-R-J1-PDC complex spheroid viability
Assay: Anticancer human tumor 889142-216-R-J1-PDC patient-derived bladder carcinoma cell line growth inhibition [POLQ]
Details: for IC50: curve of first compound; for viability, T/C: stronger effect = lower value
How it was run: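 Three-cell-type spheroids modelling solid tumor plus stroma served as the readout system; POL inhibitors were tested individually and in combination, concentration ranges set by clinical Cmax where known.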

[1] = second compound 0.0316 µM, first compound 0.0316 µM
[2] = second compound 0.0316 µM, first compound 0.1 µM
[3] = second compound 0.1 µM, first compound 0.0316 µM
[4] = second compound 0.1 µM, first compound 0.1 µM
[5] = second compound 0.316 µM, first compound 0.0316 µM
[6] = second compound 0.316 µM, first compound 0.1 µM
[7] = second compound 1 µM, first compound 0.0316 µM
[8] = second compound 1 µM, first compound 0.1 µM
[9] = second compound 3.16 µM, first compound 0.0316 µM
[10] = second compound 3.16 µM, first compound 0.1 µM
[11] = second compound 10 µM, first compound 0.0316 µM
[12] = second compound 10 µM, first compound 0.1 µM
[13] = second compound 0.0316 µM, first compound 0.316 µM
[14] = second compound 0.0316 µM, first compound 1 µM
[15] = second compound 0.0316 µM, first compound 3.16 µM
[16] = second compound 0.0316 µM, first compound 10 µM
[17] = second compound 0.1 µM, first compound 0.316 µM
[18] = second compound 0.1 µM, first compound 1 µM
[19] = second compound 0.1 µM, first compound 3.16 µM
[20] = second compound 0.1 µM, first compound 10 µM
[21] = second compound 0.316 µM, first compound 0.316 µM
[22] = second compound 0.316 µM, first compound 1 µM
[23] = second compound 0.316 µM, first compound 3.16 µM
[24] = second compound 0.316 µM, first compound 10 µM
[25] = second compound 1 µM, first compound 0.316 µM
[26] = second compound 1 µM, first compound 1 µM
[27] = second compound 1 µM, first compound 3.16 µM
[28] = second compound 1 µM, first compound 10 µM
[29] = second compound 3.16 µM, first compound 0.316 µM
[30] = second compound 3.16 µM, first compound 1 µM
[31] = second compound 3.16 µM, first compound 3.16 µM
[32] = second compound 3.16 µM, first compound 10 µM
[33] = second compound 10 µM, first compound 0.316 µM
[34] = second compound 10 µM, first compound 1 µM
[35] = second compound 10 µM, first compound 3.16 µM
[36] = second compound 10 µM, first compound 10 µM
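Also: spheroids exposed to compounds for seven days.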
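For viability, T/C in this document: 100% = DMSO vehicle control viability.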

Compound: CC(=O)O[C@H]1C(=O)[C@@]2(C)[C@H]([C@H](OC(=O)c3ccccc3)[C@]3(O)C[C@H](OC(=O)[C@H](O)[C@@H](NC(=O)c4ccccc4)c4ccccc4)C(C)=C1C3(C)C)[C@]1(OC(C)=O)CO[C@@H]1C[C@@H]2O + Cc1cccc(N(C)C(=O)C2C(O)CCN2c2nc(C)cc(C(F)(F)F)c2C#N)c1
- IC50 (second compound 0.0316 µM): > 3000 nM
- IC50 (second compound 0.1 µM): 344 nM
- IC50 (second compound 0.316 µM): > 3000 nM
- IC50 (second compound 1 µM): > 3000 nM
- IC50 (second compound 3.16 µM): 9.5 nM
- IC50 (second compound 10 µM): < 9.49 nM
- viability, T/C (second compound 0.0316 µM, first compound 0.00949 µM): 50.8%
- viability, T/C (second compound 0.0316 µM, first compound 0.03 µM): 45.5%
- viability, T/C (second compound 0.0316 µM, first compound 0.0949 µM): 57.5%
- viability, T/C (second compound 0.0316 µM, first compound 0.3 µM): 47.5%
- viability, T/C (second compound 0.0316 µM, first compound 0.949 µM): 53.1%
- viability, T/C (second compound 0.0316 µM, first compound 3 µM): 57.5%
- viability, T/C (second compound 0.1 µM, first compound 0.00949 µM): 51.4%
- viability, T/C (second compound 0.1 µM, first compound 0.03 µM): 56.5%
- viability, T/C (second compound 0.1 µM, first compound 0.0949 µM): 42.7%
- viability, T/C (second compound 0.1 µM, first compound 0.3 µM): 44.4%
- viability, T/C (second compound 0.1 µM, first compound 0.949 µM): 59%
- viability, T/C (second compound 0.1 µM, first compound 3 µM): 47.3%
- viability, T/C (second compound 0.316 µM, first compound 0.00949 µM): 56.7%
- viability, T/C (second compound 0.316 µM, first compound 0.03 µM): 50.6%
- viability, T/C (second compound 0.316 µM, first compound 0.0949 µM): 46.8%
- viability, T/C (second compound 0.316 µM, first compound 0.3 µM): 49.1%
- viability, T/C (second compound 0.316 µM, first compound 0.949 µM): 59.4%
- viability, T/C (second compound 0.316 µM, first compound 3 µM): 50.3%
- viability, T/C (second compound 1 µM, first compound 0.00949 µM): 52%
- viability, T/C (second compound 1 µM, first compound 0.03 µM): 54%
- viability, T/C (second compound 1 µM, first compound 0.0949 µM): 48.8%
- viability, T/C (second compound 1 µM, first compound 0.3 µM): 49.5%
- viability, T/C (second compound 1 µM, first compound 0.949 µM): 52.2%
- viability, T/C (second compound 1 µM, first compound 3 µM): 53.4%
- viability, T/C (second compound 3.16 µM, first compound 0.00949 µM): 49.8%
- viability, T/C (second compound 3.16 µM, first compound 0.03 µM): 48.4%
- viability, T/C (second compound 3.16 µM, first compound 0.0949 µM): 46.7%
- viability, T/C (second compound 3.16 µM, first compound 0.3 µM): 56.9%
- viability, T/C (second compound 3.16 µM, first compound 0.949 µM): 48.3%
- viability, T/C (second compound 3.16 µM, first compound 3 µM): 46%
- viability, T/C (second compound 10 µM, first compound 0.00949 µM): 50.5%
- viability, T/C (second compound 10 µM, first compound 0.03 µM): 45.4%
- viability, T/C (second compound 10 µM, first compound 0.0949 µM): 46.9%
- viability, T/C (second compound 10 µM, first compound 0.3 µM): 48.2%
- viability, T/C (second compound 10 µM, first compound 0.949 µM): 44%
- viability, T/C (second compound 10 µM, first compound 3 µM): 52.7%

Compound: Cn1ncnc1[C@H]1c2n[nH]c(=O)c3cc(F)cc(c23)N[C@@H]1c1ccc(F)cc1 + COC1C(OC(N)=O)C(O)C(Oc2ccc3c(O)c(NC(=O)c4ccc(O)c(CC=C(C)C)c4)c(=O)oc3c2C)OC1(C)C
- IC50 (second compound 0.0316 µM): > 100 nM
- IC50 (second compound 0.1 µM): > 100 nM
- IC50 (second compound 0.316 µM): > 100 nM
- IC50 (second compound 1 µM): > 100 nM
- IC50 (second compound 3.16 µM): > 100 nM
- IC50 (second compound 10 µM): > 100 nM
- viability, T/C (second compound 0.0316 µM, first compound 0.000316 µM): 97%
- viability, T/C (second compound 0.0316 µM, first compound 0.001 µM): 95%
- viability, T/C (second compound 0.0316 µM, first compound 0.00316 µM): 93.1%
- viability, T/C (second compound 0.0316 µM, first compound 0.01 µM): 80.6%
- viability, T/C [1]: 73.3%
- viability, T/C [2]: 76.8%
- viability, T/C (second compound 0.1 µM, first compound 0.000316 µM): 108%
- viability, T/C (second compound 0.1 µM, first compound 0.001 µM): 92.7%
- viability, T/C (second compound 0.1 µM, first compound 0.00316 µM): 74.2%
- viability, T/C (second compound 0.1 µM, first compound 0.01 µM): 73.7%
- viability, T/C [3]: 73.4%
- viability, T/C [4]: 72.5%
- viability, T/C (second compound 0.316 µM, first compound 0.000316 µM): 90.8%
- viability, T/C (second compound 0.316 µM, first compound 0.001 µM): 87.8%
- viability, T/C (second compound 0.316 µM, first compound 0.00316 µM): 90.9%
- viability, T/C (second compound 0.316 µM, first compound 0.01 µM): 91.9%
- viability, T/C [5]: 85%
- viability, T/C [6]: 66.6%
- viability, T/C (second compound 1 µM, first compound 0.000316 µM): 88.9%
- viability, T/C (second compound 1 µM, first compound 0.001 µM): 77.4%
- viability, T/C (second compound 1 µM, first compound 0.00316 µM): 89.2%
- viability, T/C (second compound 1 µM, first compound 0.01 µM): 117%
- viability, T/C [7]: 85%
- viability, T/C [8]: 79.6%
- viability, T/C (second compound 3.16 µM, first compound 0.000316 µM): 97.9%
- viability, T/C (second compound 3.16 µM, first compound 0.001 µM): 100%
- viability, T/C (second compound 3.16 µM, first compound 0.00316 µM): 103%
- viability, T/C (second compound 3.16 µM, first compound 0.01 µM): 83.9%
- viability, T/C [9]: 71.5%
- viability, T/C [10]: 74.1%
- viability, T/C (second compound 10 µM, first compound 0.000316 µM): 72.9%
- viability, T/C (second compound 10 µM, first compound 0.001 µM): 115%
- viability, T/C (second compound 10 µM, first compound 0.00316 µM): 89.8%
- viability, T/C (second compound 10 µM, first compound 0.01 µM): 119%
- viability, T/C [11]: 80.4%
- viability, T/C [12]: 59.6%

Compound: CC1COCCN1c1cc(C2(S(C)(=N)=O)CC2)nc(-c2ccnc3[nH]ccc23)n1 (stereo not drawn) + COC1C(OC(N)=O)C(O)C(Oc2ccc3c(O)c(NC(=O)c4ccc(O)c(CC=C(C)C)c4)c(=O)oc3c2C)OC1(C)C
- IC50 (second compound 0.0316 µM): 1930 nM
- IC50 (second compound 0.1 µM): 1800 nM
- IC50 (second compound 0.316 µM): 996 nM
- IC50 (second compound 1 µM): 977 nM
- IC50 (second compound 3.16 µM): 1960 nM
- IC50 (second compound 10 µM): 1820 nM
- viability, T/C [1]: 99%
- viability, T/C [2]: 93.9%
- viability, T/C [13]: 71.5%
- viability, T/C [14]: 59.8%
- viability, T/C [15]: 42.9%
- viability, T/C [16]: 40.4%
- viability, T/C [3]: 90.8%
- viability, T/C [4]: 102%
- viability, T/C [17]: 82.9%
- viability, T/C [18]: 56.6%
- viability, T/C [19]: 46.1%
- viability, T/C [20]: 39.8%
- viability, T/C [5]: 84.3%
- viability, T/C [6]: 92.8%
- viability, T/C [21]: 80.9%
- viability, T/C [22]: 49.7%
- viability, T/C [23]: 49.6%
- viability, T/C [24]: 38.9%
- viability, T/C [7]: 83.4%
- viability, T/C [8]: 131%
- viability, T/C [25]: 73.6%
- viability, T/C [26]: 60.5%
- viability, T/C [27]: 47.6%
- viability, T/C [28]: 40.4%
- viability, T/C [9]: 100%
- viability, T/C [10]: 98%
- viability, T/C [29]: 85.6%
- viability, T/C [30]: 55.4%
- viability, T/C [31]: 46.2%
- viability, T/C [32]: 45.2%
- viability, T/C [11]: 103%
- viability, T/C [12]: 84.2%
- viability, T/C [33]: 87.3%
- viability, T/C [34]: 53%
- viability, T/C [35]: 49.5%
- viability, T/C [36]: 43.9%

Compound: CCCS(=O)(=O)Nc1ccc(F)c(C(=O)c2c[nH]c3ncc(-c4ccc(Cl)cc4)cc23)c1F + Nc1ccc(C#CCN(C(=O)Cc2ncc(C(F)(F)F)cc2C(F)(F)F)c2ccc(F)cc2)nn1
- IC50 (second compound 0.0316 µM): 7490 nM
- IC50 (second compound 0.1 µM): 7280 nM
- IC50 (second compound 0.316 µM): 7560 nM
- IC50 (second compound 1 µM): > 10000 nM
- IC50 (second compound 3.16 µM): 9530 nM
- IC50 (second compound 10 µM): > 10000 nM
- viability, T/C [1]: 97.8%
- viability, T/C [2]: 118%
- viability, T/C [13]: 122%
- viability, T/C [14]: 98.3%
- viability, T/C [15]: 71.5%
- viability, T/C [16]: 42.8%
- viability, T/C [3]: 114%
- viability, T/C [4]: 98.7%
- viability, T/C [17]: 92.8%
- viability, T/C [18]: 96.5%
- viability, T/C [19]: 69.6%
- viability, T/C [20]: 41.7%
- viability, T/C [5]: 105%
- viability, T/C [6]: 101%
- viability, T/C [21]: 87.4%
- viability, T/C [22]: 78.6%
- viability, T/C [23]: 80.3%
- viability, T/C [24]: 40.6%
- viability, T/C [7]: 105%
- viability, T/C [8]: 81.6%
- viability, T/C [25]: 129%
- viability, T/C [26]: 76.2%
- viability, T/C [27]: 63.3%
- viability, T/C [28]: 49.4%
- viability, T/C [9]: 93.7%
- viability, T/C [10]: 92.1%
- viability, T/C [29]: 116%
- viability, T/C [30]: 94.2%
- viability, T/C [31]: 92.5%
- viability, T/C [32]: 47.9%
- viability, T/C [11]: 93.2%
- viability, T/C [12]: 103%
- viability, T/C [33]: 98.7%
- viability, T/C [34]: 96.8%
- viability, T/C [35]: 77.5%
- viability, T/C [36]: 59.2%
